Laboratory results as given in patent publication US20200179335A1, “TREATMENT OF DISEASES ASSOCIATED WITH A DYSREGULATION OF THE mTOR PATHWAY” (BIOCODEX, priority 2017, published 2020).

Legend:
[1] = test system: Akt (P13K-Akt, upstream modulator of the mTOR pathway); assay: Western blot of Akt phosphorylation in hippocampus of pentylenetetrazol-treated rats; type: in vivo, rat; details: for ratio of phosphorylated Akt related to total Akt: hippocampus of adult male Sprague-Dawley rats, pretreatment i.p. (stiripentol 300 mg/kg or wortmannin 2.4 mg/kg) 30 min before pentylenetetrazol 80 mg/kg s.c., sacrifice 30 min after PTZ, tween-PTZ control 1.81
Description: (§1) The mTOR pathway has been studied at two levels (i) an upstream level of regulation with the P13K-Akt, a modulator of the mTOR pathway and (ii) a downstream level with the ribosomal protein S6, the substrate of the S6 kinase, a direct downstream effector of the mTOR pathway. Adult male Sprague-Dawley rats (Janvier, 220-250 g, n=24, 7 weeks old) were used in this study. They were housed 2 per cage (Techniplast ref. 1291), and maintained in a 12 h light/dark cycle (light ON at 7 AM). Food and water were provided ad libitum. The experiments were conducted in accordance with the European Recommendations (directive 2010/63/EU) for the use and care of laboratory animals. The experimental protocol has been approved by the ethics committee. Pentylenetetrazol (batch MKB[…], SIGMA), 80 mg/kg in 0.9% NaCl was administered subcutaneously in an injection volume of 5 mL/kg. Wortmannin (Sigma), 2.4 mg/kg in DMSO 10% v/v in 0.9% NaCl or Stiripentol (Biocodex), 300 mg/kg in tween80 5% v/v, were injected intraperitoneally (10 mL/kg) 30 min before pentylenetetrazol administration. […] The protein concentration of each sample was determined by a BCA protein assay. […] Signals were detected by enzyme chemiluminescence (Vilber Lourmat Fusion FX5 system) and quantitatively analyzed with the Bio-1 D software (Vilber Lourmat, France). […] Each membrane was also stripped (RestoreTM western blot stripping buffer, Thermoscientific) and reprobed to detect beta-actin protein levels, a control for the total quantity of protein deposited. […] The difference between groups was assessed by a two-way ANOVA followed by a Holm-Sidak multiple comparison (factor pretreatment=tween or STP, factor treatment=NaCl or PTZ). The effect of wortmaninn was assessed by a t-test comparison between tween-pentylenetetrazol (n=5) versus wortmannin-pentylenetetrazol groups (n=3).

[2] = test system: ribosomal protein S6 (downstream effector of the mTOR pathway); assay: Western blot of S6 protein phosphorylation in hippocampus of pentylenetetrazol-treated rats; type: in vivo, rat; details: for ratio of phosphorylated S6 related to total S6 protein: hippocampus of adult male Sprague-Dawley rats, pretreatment i.p. (stiripentol 300 mg/kg or wortmannin 2.4 mg/kg) 30 min before pentylenetetrazol 80 mg/kg s.c., sacrifice 30 min after PTZ, Veh-PTZ control 0.79
Description: as §1

[3] = hippocampus, rats pretreated i.p. 30 min before pentylenetetrazol 80 mg/kg s.c.

Row | SMILES | ratio of phosphorylated Akt related to total Akt [1] | band of phosphorylated Akt in western blot (FIG. 1) [1, 3] | ratio of phosphorylated S6 related to total S6 protein [2] | band of phosphorylated S6 protein in western blot (FIG. 3) [2, 3]
1 | CC(C)(C)C(O)/C=C/c1ccc2c(c1)OCO2 (racemic) [stiripentol, 1-penten-3-ol, 1-(1,3-benzodioxol)-4,4-dimethyl] | 2.46 | strong band | 0.36 | No band was visible
2 | COC[C@H]1OC(=O)c2coc3c2[C@@]1(C)C1=C(C3=O)[C@@H]2CCC(=O)[C@@]2(C)C[C@H]1OC(C)=O [wortmannin] | 0.40 |  | 0.30 | 
